“Also recorded” adds a separate entry of the source. Where two headings read alike, the source gives them in different places.
Key:
[1] = system: peptide-pulsed autologous EBV-transformed B cells (B-LCL); assay type: cell-based, human
[2] = system: PBMCs from control and HIV-1 infected chimpanzees; assay type: cell-based, chimpanzee
[3] = system: PBMCs from normal and HIV-positive individuals; assay type: cell-based, human
[4] = system: anti-peptide antibodies in serum; assay type: binding, chimpanzee; design: key: +, Positive (Titer > 1:100); −, Negative (Titer < 1:100)
[5] = system: anti-peptide antibodies in serum; assay type: binding, human; design: key to Anti-peptide antibody response: +, Positive (titer above control); −, Negative (titer below control)
[6] = system: HIV envelope protein gp160; settings: cited from earlier work
[7] = system: PBMCs; settings: three monkeys immunized with peptide cocktail; cited from earlier work

VYYGVPVWKEA [Peptide 104]
% Specific lysis at various E:T ratios 12.5:1 ([1]; E:T 12.5:1, PBMCs from patient restimulated 7 days in phytohemagglutinin medium, peptide-pulsed autologous B-LCL): 1.5%
% Specific lysis at various E:T ratios 25:1 ([1]; E:T 25:1, PBMCs from patient restimulated 7 days in phytohemagglutinin medium, peptide-pulsed autologous B-LCL): 3.7%
% Specific lysis at various E:T ratios 50:1 ([1]; E:T 50:1, PBMCs from patient restimulated 7 days in phytohemagglutinin medium, peptide-pulsed autologous B-LCL): 9.3%
% Specific lysis at various E:T ratios 100:1 ([1]; E:T 100:1, PBMCs from patient restimulated 7 days in phytohemagglutinin medium, peptide-pulsed autologous B-LCL): 12.2%
CTL activity against peptide-pulsed autologous B-LCLs ([1]; PBMCs from LTNP HD restimulated 7 days with PHA): significant CTL activity
specific lysis of peptide-pulsed target cells ([1]; […], compared with restimulated PBMCs): also observed
T-cell proliferative response ([2]; chimpanzee 40, control normal): − (−, Negative (SI < 2.0))
T-cell proliferative response ([2]; chimpanzee 62, HIV-infected): + (+, Positive (Stimulation Index [SI] > 2.0))
T-cell proliferative response ([2]; chimpanzee 69, HIV-infected): + (+, Positive (Stimulation Index [SI] > 2.0))
T-cell proliferative response ([2]; chimpanzee 73, control normal): − (−, Negative (SI < 2.0))
T-cell proliferative response ([2]; chimpanzee 80, HIV-infected): + (+, Positive (Stimulation Index [SI] > 2.0))
T-cell proliferative response ([2]; chimpanzee 99, HIV-infected): + (+, Positive (Stimulation Index [SI] > 2.0))
T-cell proliferative response ([2]; chimpanzee 100, HIV-infected): − (−, Negative (SI < 2.0))
T-cell proliferative response ([2]; chimpanzee 139, HIV-infected): + (+, Positive (Stimulation Index [SI] > 2.0))
T-cell proliferative response ([2]; chimpanzee 175, HIV-infected): + (+, Positive (Stimulation Index [SI] > 2.0))
T-cell proliferative response ([2]; chimpanzee 247, HIV-infected): − (−, Negative (SI < 2.0))
T-cell proliferative response ([2]; chimpanzee 310, HIV-infected): + (+, Positive (Stimulation Index [SI] > 2.0))
SI values ([2]; in three HIV-infected chimpanzees): above 5.1
number of HIV-infected chimpanzees with positive proliferative responses (SI>2.0) ([2]; nine HIV-infected chimpanzees tested): seven of the nine
number of HIV+ individuals with positive proliferative responses ([3]; 17 HIV+ individuals tested): eight of the 17
T-cell proliferative response ([3]; HIV-positive patient MSf): − (−, Negative (SI < 2.0))
T-cell proliferative response ([3]; HIV-positive patient MSm): − (−, Negative (SI < 2.0))
T-cell proliferative response ([3]; HIV-positive patient eight): − (−, Negative (SI < 2.0))
T-cell proliferative response ([3]; HIV-positive patient eleven): + (+, Positive (Stimulation Index [SI] > 2.0))
T-cell proliferative response ([3]; HIV-positive patient fifteen): + (+, Positive (Stimulation Index [SI] > 2.0))
T-cell proliferative response ([3]; HIV-positive patient five): − (−, Negative (SI < 2.0))
T-cell proliferative response ([3]; HIV-positive patient four): − (−, Negative (SI < 2.0))
T-cell proliferative response ([3]; HIV-positive patient fourteen): − (−, Negative (SI < 2.0))
T-cell proliferative response ([3]; HIV-positive patient nine): + (+, Positive (Stimulation Index [SI] > 2.0))
T-cell proliferative response ([3]; HIV-positive patient one): − (−, Negative (SI < 2.0))
T-cell proliferative response ([3]; HIV-positive patient seven): − (−, Negative (SI < 2.0))
T-cell proliferative response ([3]; HIV-positive patient six): + (+, Positive (Stimulation Index [SI] > 2.0))
T-cell proliferative response ([3]; HIV-positive patient ten): − (−, Negative (SI < 2.0))
T-cell proliferative response ([3]; HIV-positive patient thirteen): + (+, Positive (Stimulation Index [SI] > 2.0))
T-cell proliferative response ([3]; HIV-positive patient three): + (+, Positive (Stimulation Index [SI] > 2.0))
T-cell proliferative response ([3]; HIV-positive patient twelve): + (+, Positive (Stimulation Index [SI] > 2.0))
T-cell proliferative response ([3]; HIV-positive patient two): + (+, Positive (Stimulation Index [SI] > 2.0))
T-cell proliferative response ([3]; Normal-1 (HIV-seronegative)): − (−, Negative (SI < 2.0))
T-cell proliferative response ([3]; Normal-2 (HIV-seronegative)): − (−, Negative (SI < 2.0))
SI values ([3]; in six of the eight responding HIV+ individuals): above 4.1
Anti-peptide antibody response [4]: −
Anti-peptide antibody response ([4]; chimpanzee 40, control normal): −
Anti-peptide antibody response ([4]; chimpanzee 73, control normal): −
number of HIV+ individuals with positive antibody titers (<1:1280) [5]: three
Anti-peptide antibody response ([5]; HIV-positive patient MSf): −
Anti-peptide antibody response ([5]; HIV-positive patient MSm): −
Anti-peptide antibody response ([5]; HIV-positive patient eight): −
Anti-peptide antibody response ([5]; HIV-positive patient eleven): −
Anti-peptide antibody response ([5]; HIV-positive patient fifteen): −
Anti-peptide antibody response ([5]; HIV-positive patient five): −
Anti-peptide antibody response ([5]; HIV-positive patient four): +
Anti-peptide antibody response ([5]; HIV-positive patient fourteen): −
Anti-peptide antibody response ([5]; HIV-positive patient nine): −
Anti-peptide antibody response ([5]; HIV-positive patient one): −
Anti-peptide antibody response ([5]; HIV-positive patient seven): −
Anti-peptide antibody response ([5]; HIV-positive patient six): +
Anti-peptide antibody response ([5]; HIV-positive patient ten): −
Anti-peptide antibody response ([5]; HIV-positive patient thirteen): −
Anti-peptide antibody response ([5]; HIV-positive patient three): −
Anti-peptide antibody response ([5]; HIV-positive patient twelve): −
Anti-peptide antibody response ([5]; HIV-positive patient two): +
Anti-peptide antibody response ([5]; Normal-1 (HIV-seronegative)): −
Anti-peptide antibody response ([5]; Normal-2 (HIV-seronegative)): −
T-cell proliferative response to immunizing peptide and HIV Env protein gp160 ([6]; immunized mice): induced a T-cell response against both the immunizing peptide and the HIV Env protein; also recorded: induced proliferative responses to both the immunizing peptide
antibodies recognizing recombinant gp160 ([6]; immunized mice): did not produce antibodies that could recognize recombinant gp160
T-cell proliferation responses ([6]; two F1 hybrid mouse strains (B6C3 F1 and A.SW×Balb/c F1)): relatively good T-cell proliferation responses
proliferative response of PBMCs [7]: good response

Source: patent publication US7306804B2 (priority 1998, dated 2007)
